Key:
[1] = tested on: Cryptococcus neoformans B66663; test: Antifungal activity in vitro (resazurin susceptibility screen), Inf. F; format: cell-based; details: Cryptococcus neoformans, B66663, Cryptococcus neoformans B66663; 37 °C, 24 hours, resa time 4 hours; read-out: Inf. F pIC50 (converted)
Method in brief: (§1)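 Serially diluted compounds were pre-spotted into 96-well U-bottom plates, then each well received 10^3 cfu of cryopreserved fungal inoculum in 200 μl RPMI-MOPS medium. Every plate carried a compound-free growth control (100%) and a medium-only control (0%), with resazurin as read-out.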

[2] = molecular target: CYP3A4 (Homo sapiens, UniProt P08684); test: Cytochrome P450 inhibition, Protocol A, cDNA expressed proteins, fluorogenic substrates; format: in vitro ADME; details: % inhibition at 10 μM, cDNA expressed protein
Method in brief: (§2)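 cDNA-expressed enzymes with fluorogenic substrates (three separate ones for CYP3A4) in sodium/potassium buffer pH 7.4 plus NADPH-generating system. Compounds at 1 nM to 10 μM final, prewarmed 5 min at 37° C, reaction started with NADP+, stopped, then fluorescence measured.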

[3] = Liver metabolic stability assay, gpLM; format: in vitro ADME, guinea pig; details: guinea pig microsomes, 1 mg protein/ml, 5 μM test compound, 15 min, 37 °C
Method: (§3) Liver preparations (microsomal fractions) were obtained from BD Gentest (San Jose, Calif., US). Metabolic stability was assessed using the following assay conditions. […] The mixture was pre-incubated at 37° C. for 5 min and the enzymatic reaction was started by addition of 5 μM test compound. After 0 (control) and 15 minutes (min), the reactions were terminated by addition of […] (500 μl). The precipitated material was removed by centrifugation at 1200 g for 10 min. The supernatant was analysed by LC-MS/MS on a ThermoFinnigan LCQ Deca XP ion-trap mass spectrometer equipped with an atmospheric pressure chemical ionisation source. Calculation of %-compound remaining was as described by Kantharaj et al. 2003 ((Kantharaj E., Tuytelaars A, Proost P E A, Ongel Z, van […] (2003). Simultaneous measurement of drug metabolic stability and identification of metabolites using ion-trap mass spectrometry.

[4] = molecular target: T1, CYP1A2 (Homo sapiens, UniProt P05177); test: Cytochrome P450 inhibition, Protocol A, cDNA expressed proteins, fluorogenic substrate; format: in vitro ADME; details: % inhibition at 10 μM; substrate CEC; cDNA expressed protein
T1 sequence (P05177 1-516): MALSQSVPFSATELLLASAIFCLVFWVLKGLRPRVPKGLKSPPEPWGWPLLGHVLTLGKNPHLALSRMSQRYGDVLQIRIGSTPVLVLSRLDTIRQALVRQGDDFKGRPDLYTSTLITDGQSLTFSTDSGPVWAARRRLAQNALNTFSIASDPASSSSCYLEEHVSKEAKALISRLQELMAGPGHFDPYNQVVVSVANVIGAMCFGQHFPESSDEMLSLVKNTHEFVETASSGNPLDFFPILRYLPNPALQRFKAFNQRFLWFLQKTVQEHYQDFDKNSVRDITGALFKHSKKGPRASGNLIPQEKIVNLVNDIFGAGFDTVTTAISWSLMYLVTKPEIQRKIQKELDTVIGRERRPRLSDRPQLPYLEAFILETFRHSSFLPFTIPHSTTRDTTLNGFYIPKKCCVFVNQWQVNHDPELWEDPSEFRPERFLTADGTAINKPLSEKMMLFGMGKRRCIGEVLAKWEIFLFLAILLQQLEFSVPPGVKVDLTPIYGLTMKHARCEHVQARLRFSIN
Method in brief: as §2

[5] = molecular target: CYP2D6 (Homo sapiens, UniProt P10635); test: as above; format: in vitro ADME; details: % inhibition at 10 μM; substrate AMMC; cDNA expressed protein
Method in brief: as §2

[6] = molecular target: CYP2C9 (Homo sapiens, UniProt P11712); test: as above; format: in vitro ADME; details: % inhibition at 10 μM; substrate MFC; cDNA expressed protein
Method in brief: as §2

[7] = tested on: Sporothrix schenkii B62482; test: Antifungal activity in vitro (resazurin susceptibility screen), Inf. A; format: cell-based; details: Sporothrix, B62482, Sporothrix schenkii B62482; 27 °C, 4 days, resa time 24 hours; highest in-test concentration 64 μM; read-out: Inf. A pIC50 (converted)
Method in brief: as §1

[8] = tested on: Aspergillus fumigatus B42928; test: Antifungal activity in vitro (resazurin susceptibility screen), Inf. E; format: cell-based; details: Aspergillus fumigatus B42928; 27 °C, 48 hours, resa time 17 hours; read-out: Inf. E pIC50 (converted)
Method in brief: as §1

[9] = Liver metabolic stability assay, mLM; format: in vitro ADME; details: mouse liver microsomes, 1 mg protein/ml, 5 μM test compound, 15 min, 37 °C
Method: as §3

[10] = Liver metabolic stability assay, hLM; format: in vitro ADME, human; details: human liver microsomes, 1 mg protein/ml, 5 μM test compound, 15 min, 37 °C
[11] = tested on: Microsporum canis B68128; test: Antifungal activity in vitro (resazurin susceptibility screen), Inf. B; format: cell-based; details: Microsporum canis, B68128, Microsporum canis B68128; 27 °C, 9 days, resa time 24 hours; read-out: Inf. B pIC50 (converted)
Method in brief: (§4)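 Each well was inoculated with 10^3 cfu of fungus onto dried, pre-spotted compound serial dilutions in RPMI-MOPS medium, with fungal growth read by resazurin. Growth was referenced to drug-free culture (100%) and medium-only (0%) controls on each plate.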

[12] = tested on: Candida parapsilosis B66126; test: Antifungal activity in vitro (resazurin susceptibility screen), Inf. D; format: cell-based; details: Lodderomyces parapsilosis; Candida parapsilosis B66126; 37 °C, 24 hours, resa time 4 hours; read-out: Inf. D pIC50 (converted)
Method in brief: as §4

[13] = tested on: Trichophyton rubrum B68183; test: Antifungal activity in vitro (resazurin susceptibility screen), Inf. C; format: cell-based; details: Trichophyton rubrum B68183; 27 °C, 7 days, resa time 24 hours; read-out: Inf. C pIC50 (converted)
Method in brief: as §1

[14] = tested on: Trichophyton mentagrophytes B70554; test: Antifungal activity in vitro (resazurin susceptibility screen), Inf. G; format: cell-based; details: Trichophyton mentagrophytes, B70554, Trichophyton mentagrophytes B70554; 27 °C, 7 days, resa time 24 hours; read-out: Inf. G pIC50 (converted)
Method in brief: as §4

[15] = tested on: Rhizopus oryzae IHEM5223; test: Antifungal activity in vitro (resazurin susceptibility screen), Inf. J; format: cell-based; details: Rhizopus arrhizus, 37 °C, 24 hours, resa time 6 hours, read-out: Inf. J pIC50 (converted)
Method: (§5) The standard susceptibility screen was performed in 96-well plates (U-bottom, Greiner Bio-One). […] These serial dilutions (10 n1) were then spotted onto test-plates that could be stored in the dark at 4° C. for a maximum period of 2 weeks. […] The different fungal species/isolates (Table 3a) were cryopreserved and 1/1000 diluted in medium just prior to use. A standard inoculum of 200 μl containing 10^3 colony-forming unit (cfu) was then added to each well. A positive control (100% growth=fungal culture without antifungal) and a negative control (0% growth ═RPMI-MOPS medium) were included on each plate. […] [table]

[16] = tested on: Mucor circinelloides IHEM21105; test: Antifungal activity in vitro (resazurin susceptibility screen), Inf. L; format: cell-based; details: 27 °C, 48 hours, resa time 17 hours, read-out: Inf. L pIC50 (converted)
Method: as §5

[17] = tested on: Scedosporium prolificans IHEM21157; test: Antifungal activity in vitro (resazurin susceptibility screen), Inf. I; format: cell-based; details: Lomentospora prolificans, 37 °C, 48 hours, resa time 17 hours, read-out: Inf. I pIC50 (converted)
Method: as §5

[18] = tested on: Scedosporium apiospermum IHEM3817; test: Antifungal activity in vitro (resazurin susceptibility screen), Inf. H; format: cell-based; details: 37 °C, 48 hours, resa time 17 hours, read-out: Inf. H pIC50 (converted)
Method: as §5

[19] = tested on: Rhizomucor miehei IHEM13391; test: Antifungal activity in vitro (resazurin susceptibility screen), Inf. K; format: cell-based; details: 37 °C, 48 hours, resa time 17 hours, read-out: Inf. K pIC50 (converted)
Method: as §5

[20] = molecular target: Cytochrome P450 2C19 (Homo sapiens, UniProt P33261); test: Human liver microsomal cytochrome P450 cocktail inhibition assay, Protocol C; details: 2C19_S-Meph pIC50, human liver microsomes 0.2 mg/ml; probe S-mephenytoin 30 microM
Method: (§6) Probe substrates and final assay concentrations with the appropriate internal standard are outlined in Table 6a.
(§7) Assays were performed in 0.1 M phosphate buffer (pH 7.4), containing 0.2 mg/ml human liver microsomes (BD Gentest) and a probe substrate mix consisting of: phenacetin, tolbutamide, S-mephenyloin, dextromethorphan, amodiaquine and midazolam (Table 6a) and a range of test compound concentrations (0 to 30 micromolar) in a total volume of 100 microliters. After a 10 min pre-incubation at 37° C., the reaction was started with addition of NADPH at a final concentration of 1.0 mM. […] The samples are centrifuged for 10 min at 4° C. at 4000 rpm and 60 microliters supernatant is diluted with 180 microliters water. Each sample is injected onto a UPLC/MS system for the simultaneous measurement of the probe substrate metabolites and their associated deuterated internal standards. Percentage inhibition is calculated according to: %-inhibition=(1−Ri/R)*100, whereby Ri and R are the metabolite to internal standard peak area ratios in the presence and absence of inhibitor respectively.
(§8) Percentage inhibition data are plotted against the Log transformed test compound concentration and after curve fitting the IC50-value is determined.

[21] = molecular target: Cytochrome P450 2D6 (Homo sapiens, UniProt P10635); test: as above; details: 2D6_Dextro pIC50, human liver microsomes 0.2 mg/ml; probe dextromethorphan 3 microM
Method: as §6, §7, §8

[22] = molecular target: Cytochrome P450 2C9 (Homo sapiens, UniProt P11712); test: as above; details: 2C9 Tolbut pIC50, human liver microsomes 0.2 mg/ml; probe tolbutamide 100 microM
Method: as §6, §7, §8

[23] = molecular target: T2, Cytochrome P450 1A2 (Homo sapiens, UniProt P05177); test: as above; details: human liver microsomes 0.2 mg/ml; probe phenacetin 80 microM
T2 sequence (P05177 1-516): T1 sequence (P05177 1-516)
Method: as §6, §7, §8

[24] = molecular target: CYP3A4/5 (Homo sapiens, UniProt P08684); test: in vitro; details: liver microsomes, pH 7.4, probe midazolam (2 microM)
Method: as §6
After a 10 min pre-incubation at 37° C., the reaction was started with addition of NADPH at a final concentration of 1.0 mM. […] The samples are centrifuged for 10 min at 4° C. at 4000 rpm and 60 microliters supernatant is diluted with 180 microliters water. Each sample is injected onto a UPLC/MS system for the simultaneous measurement of the probe substrate metabolites and their associated deuterated internal standards.
as §8

Sequence of CYP3A4 (P08684 whole entry): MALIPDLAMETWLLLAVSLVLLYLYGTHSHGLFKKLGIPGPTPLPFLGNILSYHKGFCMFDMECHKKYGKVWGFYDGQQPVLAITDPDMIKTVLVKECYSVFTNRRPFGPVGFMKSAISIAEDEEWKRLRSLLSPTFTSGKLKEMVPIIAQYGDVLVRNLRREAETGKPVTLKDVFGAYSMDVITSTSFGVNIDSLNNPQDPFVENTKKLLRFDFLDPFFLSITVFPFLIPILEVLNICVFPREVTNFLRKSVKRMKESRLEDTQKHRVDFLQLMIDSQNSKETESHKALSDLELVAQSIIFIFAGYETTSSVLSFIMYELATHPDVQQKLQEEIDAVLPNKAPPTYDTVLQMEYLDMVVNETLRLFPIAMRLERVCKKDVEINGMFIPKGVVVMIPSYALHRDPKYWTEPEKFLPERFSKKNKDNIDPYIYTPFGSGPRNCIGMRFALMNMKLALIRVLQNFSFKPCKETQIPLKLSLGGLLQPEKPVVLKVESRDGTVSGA
Sequence of CYP3A4/5 (P08684 2-503): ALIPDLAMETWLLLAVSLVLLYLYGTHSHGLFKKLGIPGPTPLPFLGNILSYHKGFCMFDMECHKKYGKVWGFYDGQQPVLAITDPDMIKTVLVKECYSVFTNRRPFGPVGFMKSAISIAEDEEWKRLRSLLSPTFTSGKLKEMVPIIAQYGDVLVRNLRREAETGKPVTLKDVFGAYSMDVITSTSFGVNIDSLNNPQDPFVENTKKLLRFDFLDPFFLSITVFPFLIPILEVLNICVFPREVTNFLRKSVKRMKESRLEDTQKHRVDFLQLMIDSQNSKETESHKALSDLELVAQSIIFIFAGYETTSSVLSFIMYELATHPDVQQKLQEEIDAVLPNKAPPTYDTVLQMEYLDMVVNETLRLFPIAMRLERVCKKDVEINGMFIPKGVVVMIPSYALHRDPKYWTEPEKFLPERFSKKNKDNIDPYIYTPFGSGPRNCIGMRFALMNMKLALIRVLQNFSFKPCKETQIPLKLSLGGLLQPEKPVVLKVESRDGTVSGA
Sequence of Cytochrome P450 2C19 (P33261 whole entry): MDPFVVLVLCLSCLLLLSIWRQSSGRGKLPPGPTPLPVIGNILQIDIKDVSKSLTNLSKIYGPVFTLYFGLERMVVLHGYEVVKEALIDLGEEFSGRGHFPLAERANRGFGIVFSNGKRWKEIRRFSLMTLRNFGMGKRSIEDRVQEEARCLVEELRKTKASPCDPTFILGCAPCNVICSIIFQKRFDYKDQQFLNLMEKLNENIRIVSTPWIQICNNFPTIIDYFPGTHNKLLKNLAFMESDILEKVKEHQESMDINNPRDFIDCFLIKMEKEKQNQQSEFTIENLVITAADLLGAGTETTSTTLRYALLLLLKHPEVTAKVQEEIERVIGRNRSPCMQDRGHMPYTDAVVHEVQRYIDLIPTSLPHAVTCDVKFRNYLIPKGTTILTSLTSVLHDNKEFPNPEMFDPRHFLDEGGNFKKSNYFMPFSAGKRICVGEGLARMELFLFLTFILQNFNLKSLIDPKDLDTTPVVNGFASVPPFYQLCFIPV
Sequence of CYP2C9 (P11712 whole entry): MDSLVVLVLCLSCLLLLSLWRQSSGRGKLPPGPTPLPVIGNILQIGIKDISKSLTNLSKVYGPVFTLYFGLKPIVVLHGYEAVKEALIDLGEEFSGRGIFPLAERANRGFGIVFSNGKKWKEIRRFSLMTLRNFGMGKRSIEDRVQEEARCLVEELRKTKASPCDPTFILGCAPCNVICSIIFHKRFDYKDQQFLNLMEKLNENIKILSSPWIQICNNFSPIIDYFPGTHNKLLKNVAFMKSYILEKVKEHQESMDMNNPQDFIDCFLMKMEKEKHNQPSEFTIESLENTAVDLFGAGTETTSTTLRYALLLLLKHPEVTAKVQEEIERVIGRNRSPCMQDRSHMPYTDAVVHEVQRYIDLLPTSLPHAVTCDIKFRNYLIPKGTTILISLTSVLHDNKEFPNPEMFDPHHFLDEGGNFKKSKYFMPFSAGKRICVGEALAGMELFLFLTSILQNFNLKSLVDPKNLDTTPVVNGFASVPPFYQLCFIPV
Sequence of Cytochrome P450 2C9 (P11712 whole entry): as above
Sequence of CYP2D6 (P10635 whole entry): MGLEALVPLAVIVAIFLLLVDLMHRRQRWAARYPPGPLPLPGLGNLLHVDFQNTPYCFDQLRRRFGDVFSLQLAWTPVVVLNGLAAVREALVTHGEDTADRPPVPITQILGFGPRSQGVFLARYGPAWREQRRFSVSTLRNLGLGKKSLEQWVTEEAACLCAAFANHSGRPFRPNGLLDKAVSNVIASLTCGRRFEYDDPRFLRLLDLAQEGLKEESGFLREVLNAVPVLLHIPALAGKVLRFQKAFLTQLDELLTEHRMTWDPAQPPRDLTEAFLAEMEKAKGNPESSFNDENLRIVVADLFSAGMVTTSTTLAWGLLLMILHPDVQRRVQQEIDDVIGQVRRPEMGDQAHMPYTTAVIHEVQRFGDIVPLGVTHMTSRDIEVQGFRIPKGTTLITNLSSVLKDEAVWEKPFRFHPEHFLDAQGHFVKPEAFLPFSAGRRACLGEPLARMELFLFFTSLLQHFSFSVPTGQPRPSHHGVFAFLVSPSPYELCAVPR
Sequence of Cytochrome P450 2D6 (P10635 whole entry): as above

Row | IC50 [1] [µM] | %-compound metabolised Met_gpLM [3] [%] | IC50 [7] [µM] | IC50 [8] [µM] | melting point [°C] | %-compound metabolised Met_mLM [9] [%] | %-compound metabolised_Met_hLM [10] [%] | IC50 [11] [µM] | IC50 [12] [µM] | IC50 [13] [µM] | IC50 [14] [µM] | Compound | other results
1 | 10 | 44 | 1.26 | 1.58 | 183.6 to 186.7 | 45 | 19 | 0.631 | > 63.1 | 0.0794 | 3.98 | CC(=O)c1ccc(C2=NCc3cc(Cl)cc(Cl)c3-n3cccc32)cc1 [Compound 26, 1-[4-(8,10-dichloro-6H-pyrrolo[1,2-a][1,4]benzodiazepin-4-yl)phenyl]-ethanone] | hCYP3A4_BFC_Pct_Inh ([2]; substrate BFC): 33%; hCYP3A4_BQ_Pct_Inh ([2]; substrate BQ): 32%; hCYP3A4_DBF_Pct_Inh ([2]; substrate DBF): 55%; hCYP1A2_CEC_Pct_Inh [4]: 34%; hCYP2D6_AMMC_Pct_Inh [5]: 74%; hCYP2C9_MFC_Pct_Inh [6]: 69%
2 | > 63.1 | 21 | > 63.1 | > 63.1 | 218.5 to 219.9 | 41 | 2 | 1.26 | > 63.1 | 2 | 2.51 | CS(=O)(=O)c1ccc(C2=NCc3c(Cl)cccc3-n3cccc32)cc1 [Compound 28, 7-chloro-4-[4-(methylsulfonyl)phenyl]-6H-pyrrolo[1,2-a][1,4]benzodiazepine] | IC50 [15]: > 63.1 µM; IC50 [16]: > 63.1 µM; IC50 [17]: 7.94 µM; IC50 [18]: > 63.1 µM; IC50 [19]: > 63.1 µM
3 | – | – | – | – | – | – | – | – | – | – | – | Br.CC(=O)c1ccc(C2NCc3c(Cl)cccc3-n3cccc32)cc1 (centres unmarked) [drawing 96] | IC50 [20]: 1.26 µM; IC50 [21]: 2 µM; IC50 [22]: 2.51 µM; 1A2_Phen pIC50 [23]: <5.0; IC50 at 10 min [24]: 5.01 µM
